In a flash point compilation (Sun et al. 2020):

Structure (SMILES)	flash point [°C]
Cc1ccc(C)c(C)c1C [1,2,3,4-tetramethylbenzene]	68
Cc1ccc(C)c(C)c1 [1,2,4-trimethylbenzene]	46
CCC(O)CO (centres undefined) [1,2-butanediol]	93
Clc1ccccc1Cl [1,2-dichlorobenzene]	68
CCC(Cl)CCl (centres undefined) [1,2-dichlorobutane]	27
ClCCCl [1,2-dichloroethane]	13
CC(Cl)CCl (centres undefined) [1,2-dichloropropane]	13
Cc1ccc(F)cc1C [1,2-dimethyl-4-fluorobenzene]	40
OCCO [1,2-ethanediol]	108
CCCCC(O)CO (centres undefined) [1,2-hexanediol]	122
CCCC(O)CO (centres undefined) [1,2-pentanediol]	105
CC(N)CN (centres undefined) [1,2-propanediamine]	33
C1=CC=CC=CC=C1 [1,3,5,7-cyclooctatetraene]	22
Clc1cccc(Cl)c1 [1,3-dichlorobenzene]	63
CC(C)c1cccc(C(C)C)c1 [1,3-diisopropylbenzene]	76
NCCCN [1,3-propanediamine]	48
C1COCCO1 [1,4-dioxane]	11
OCCCCCO [1,5-pentanediol]	129
SCCCCCS [1,5-pentanedithiol]	95
C=CCCCCCC=C [1,8-nonadiene]	26
CC(O)CN (centres undefined) [1-amino-2-propanol]	67
CCc1cccc(Br)c1 [1-bromo-3-ethylbenzene]	71
CCCCCCCBr [1-bromoheptane]	61

Structure (SMILES)	flash point [°C]
CCCCCCCCBr [1-bromooctane]	78
CCCCCBr [1-bromopentane]	30
CCCCO [1-butanol]	34
CCCCCC#CCCCCl [1-chloro-4-decyne]	87
CCCCCCCCCCCl [1-chlorodecane]	83
CCCCCCCCCl [1-chlorooctane]	58
CCCCCCCCCCS [1-decanethiol]	99
C=CCCCCCCCC [1-decene]	38
CCC1(C)CCCC1 [1-ethyl-1-methylcyclopentane]	6
C=CCCCCC [1-heptene]	-9
C#CCCCCC [1-heptyne]	-2
CCCCCCO [1-hexanol]	59
C=CCCCC [1-hexene]	-26
C#CCCCC [1-hexyne]	-20
CCCCI [1-iodobutane]	33
CCC[N+](=O)[O-] [1-nitropropane]	34
CCCCCCCCCO [1-nonanol]	98
C#CCCCCCC [1-octyne]	16
C=CCCCCCCCCCCCCC [1-pentadecene]	113
CCCCCS [1-pentanethiol]	18
CCCCCO [1-pentanol]	49
C=CCCC [1-pentene]	-51
C#CCCC [1-pentyne]	-34

Structure (SMILES)	flash point [°C]
CCCC(=O)c1ccccc1 [1-phenyl-1-butanone]	88
CCC(=O)CCc1ccccc1 [1-phenyl-3-pentanone]	103
C#CCCCCCCCCCCC [1-tridecyne]	93
CCCCCCCCCCCO [1-undecanol]	115
C#CCCCCCCCCC [1-undecyne]	65
CCC(C)(C)C(C)(C)C [2,2,3,3-tetramethylpentane]	16
CCC(C)C(C)C(C)(C)C (centres undefined) [2,2,3,4-tetramethylhexane]	31
CC(C)(Cl)Cl [2,2-dichloropropane]	-5
OCC(Cl)CCl (centres undefined) [2,3-dichloro-1-propanol]	93
Cc1cccc(N)c1C [2,3-dimethylaniline]	96
Cc1ccc(O)c(C)c1 [2,4-dimethylphenol]	94
CC(=O)CCC(C)=O [2,5-hexanedione]	78
CCCCOCCO [2-butoxyethanol]	62
CCCCOCCOC(C)=O [2-butoxyethylacetate]	71
CC(Cl)CO (centres undefined) [2-chloro-1-propanol]	51
CCC(C)Cl (centres undefined) [2-chlorobutane]	-15
OCCCl [2-chloroethanol]	55
CCOCCOC(C)=O [2-ethoxyethylacetate]	51
CCc1ccccc1N [2-ethylaniline]	85
C=CC(=O)OCC(CC)CCCC (centres undefined) [2-ethylhexylacrylate]	86
CC(C)COCCO [2-isobutoxyethanol]	51
CCC(C)(C)O [2-methyl-2-butanol]	21

Results, then the compound that gave them:

flash point [°C]	Structure (SMILES)
-24	CC(C)C(C)(C)C [2,2,3-trimethylbutane]
95	CC(CC(C)(C)C)CC(C)(C)CC(C)(C)C (centres undefined) [2,2,4,4,6,8,8-heptamethylnonane]
6	CC(C)(C)CC(C)(C)C [2,2,4,4-tetramethylpentane]
13	CC(C)CCC(C)(C)C [2,2,5-trimethylhexane]
-29	CCC(C)(C)C [2,2-dimethylbutane]
33	CC1(C)CCCC1=O [2,2-dimethylcyclopentanone]
24	CCCCCC(C)(C)C [2,2-dimethylheptane]
-17	C=C(C)C(C)(C)C [2,3,3-trimethyl-1-butene]
15	CCCC(C)(C)C(C)C [2,3,3-trimethylhexane]
31	CC(C)C(C)C(C)C(C)C (centres undefined) [2,3,4,5-tetramethylhexane]
-0	CC(C)C(C)C(C)C [2,3,4-trimethylpentane]
15	CC(C)CC(C)C(C)C (centres undefined) [2,3,5-trimethylhexane]
10	CC(=O)C(C)=O [2,3-butanedione]
-12	CC1=CCCO1 [2,3-dihydro-5-methylfuran]
-24	C1=COCC1 [2,3-dihydrofuran]
-17	C=C(C)C(C)CC (centres undefined) [2,3-dimethyl-1-pentene]
5	CCCC(C)C(C)C (centres undefined) [2,3-dimethylhexane]
36	CCCCCC(C)C(C)C (centres undefined) [2,3-dimethyloctane]
15	CCC(C)(C)CC(C)C [2,4,4-trimethylhexane]
31	CC(C)CC(C)CC(C)C [2,4,6-trimethylheptane]
54	Cc1cc(C)nc(C)c1 [2,4,6-trimethylpyridine]

flash point [°C]	Structure (SMILES)
15	CCCC(C)CC(C)C (centres undefined) [2,4-dimethylheptane]
47	Cc1ccnc(C)c1 [2,4-dimethylpyridine]
38	CC(=O)CC(C)=O [2,4-pentanedione]
15	CCC(C)CCC(C)C (centres undefined) [2,5-dimethylheptane]
26	CC(C)CCCC(C)C [2,6-dimethylheptane]
-23	CCC(C)S (centres undefined) [2-butanethiol]
38	CC1=CC2C(CC1)C2(C)C (centres undefined) [2-carene]
56	O=C1C=CCCC1 [2-cyclohexen-1-one]
85	CCCCCCCCC(C)O (centres undefined) [2-decanol]
108	CCCCCCCCCCC(C)=O [2-dodecanone]
78	CC#CCCCCCCCCC [2-dodecyne]
56	CCc1cc(C)ccc1C [2-ethyl-1,4-dimethylbenzene]
-26	C=C(CC)CC [2-ethyl-1-butene]
50	CCCCC(CC)CN (centres undefined) [2-ethyl-1-hexanamine]
-10	C=C(CC)CCC [2-ethyl-1-pentene]
21	CCC(C=O)CC [2-ethylbutanal]
71	CCC1CCCCCC1=O (centres undefined) [2-ethylcycloheptanone]
-2	CCc1ccco1 [2-ethylfuran]
46	CCCCC(C=O)CC (centres undefined) [2-ethylhexanal]
21	CCc1cccs1 [2-ethylthiophene]
39	CCCCCC(C)=O [2-heptanone]

flash point [°C]	Structure (SMILES)
46	CCCCC(C)O (centres undefined) [2-hexanol]
45	CCCC(C)I (centres undefined) [2-iodopentane]
43	CC(C)OCCO [2-isopropoxyethanol]
68	OCCS [2-mercaptoethanol]
-29	CCC(C)OC (centres undefined) [2-methoxybutane]
19	CCC(C)CS (centres undefined) [2-methyl-1-butanethiol]
43	CCC(C)CO (centres undefined) [2-methyl-1-butanol]
-47	C=C(C)CC [2-methyl-1-butene]
-27	C=C(C)CCC [2-methyl-1-pentene]
28	CC(C)CO [2-methyl-1-propanol]
-45	CC=C(C)C [2-methyl-2-butene]
9	CCCCC=C(C)C [2-methyl-2-heptene]
20	CCCC(C)(C)S [2-methyl-2-pentanethiol]
46	CCC(O)C(C)C (centres undefined) [2-methyl-3-pentanol]
50	CCCCCCCCC(C)C [2-methyldecane]
71	CCCCCCCCCCC(C)C [2-methyldodecane]
105	CCCCC(C)C(=O)O (centres undefined) [2-methylhexanoicacid]
24	CCCCCCC(C)C [2-methyloctane]
61	CCCCCCCCCC(C)C [2-methylundecane]
